Assay [1] has as its system cathepsin L-type protease activity of hair extract. Put plainly: peptidyl-AMC protease assay of hair fibre extract. In kind it is biochemical, human. As for the experimental part: Hair fibres taken from approx. 5 mm from the scalps of male and female individuals, aged 25-35, were cleaned, dried and then ground in liquid N2, and homogenised with an Ystral Homogeniser (high shear) using a 10 mm probe in extraction buffer (50 mM Citrate-Phosphate pH6.0, 2M NaCl).
Triton X-100 (2% stock) was added to the homogenate to a final concentration of 0.1%, and intermittently mixed by gentle agitation and incubated on ice for 1 hour. Large hair debris was allowed to precipitate and the solution was centrifuged at 13000 rpm for 5 minutes to remove insoluble protein. The resulting supernatant, containing soluble protein was dialysed (MWCO ca […]) in 50 mM citrate-phosphate, pH 6.0. Glycerol was added to the dialysed extract to 20% (v/v). The extracts were then aliquotted and stored at −20° C. until required.
With the above information, it was decided to investigate the protease profile of the hair extracts with the use of more specific peptide substrates (peptidyl-7-amido-4-methylcoumarin (peptidyl-AMC) substrates). Seven peptidyl-AMC substrates were used to study the protease types within the hair extract. These were selected on the basis of their specificity for individual protease species.
Stock solutions of each peptidyl-AMC substrate (Bachem) were prepared at 10 mM in DMSO and stored in aliquots at 4° C. Each aliquot was diluted to 1 mM with MQ water, prior to use. All assays (100 μl final volume) were routinely conducted in triplicate. For the measurement of cysteine protease activity, the standard assay contained 50 mM citrate-phosphate buffer pH 6.0, 100 μM peptidyl-AMC, 5 mM cysteine and approximately 1 μg protein extract. The assays were initiated by the addition of substrate and incubated at 30° C. for 2 hours. The reactions were terminated with the addition of 1 ml ‘stop’ solution (100 mM sodium monochloroacetate, 30 mM sodium acetate, 70 mM acetic acid).
The hydrolysed AMC was measured with the use of a fluorimeter set to 370 nm (excitation) and 460 nm (emission). Protease activity was quantified using standard concentrations of AMC. The fluorescence of each substrate and the hair extract were also measured and these values subtracted from the final fluorescence of each reaction, to give the value of fluorescence increase due to AMC liberation.

The next assay addresses T1, human steroid sulphatase (Homo sapiens, UniProt P08842).
T1 sequence (P08842 22-583): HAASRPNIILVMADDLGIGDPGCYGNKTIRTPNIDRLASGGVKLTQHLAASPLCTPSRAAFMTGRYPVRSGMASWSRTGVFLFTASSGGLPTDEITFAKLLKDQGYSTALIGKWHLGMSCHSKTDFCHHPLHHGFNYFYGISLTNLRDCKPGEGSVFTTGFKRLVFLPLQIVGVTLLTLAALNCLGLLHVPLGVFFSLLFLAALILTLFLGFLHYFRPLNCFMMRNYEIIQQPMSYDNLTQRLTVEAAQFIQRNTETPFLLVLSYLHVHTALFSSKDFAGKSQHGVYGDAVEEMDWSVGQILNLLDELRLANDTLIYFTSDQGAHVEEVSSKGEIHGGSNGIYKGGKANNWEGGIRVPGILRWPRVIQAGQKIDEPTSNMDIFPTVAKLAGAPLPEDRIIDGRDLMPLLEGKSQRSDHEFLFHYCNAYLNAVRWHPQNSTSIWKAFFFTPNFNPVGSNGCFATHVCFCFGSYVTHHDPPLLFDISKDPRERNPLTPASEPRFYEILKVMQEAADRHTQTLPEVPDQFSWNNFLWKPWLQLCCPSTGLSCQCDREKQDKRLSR
Conditions: substrate cholesterol-3-sulphate; cited from earlier work.

Where [2] appears, read: hair fibre extract, substrate z-Phe-Arg-AMC.

Consider 4 compounds from patent publication US6399052B2, “Treating hair by targeting enzymes” (Unilever Home & Personal Care USA division of Conopco, Inc., priority 1999, dated 2002).

As usually defined, the Km is the substrate concentration at which the rate is half of its maximum.

Peptide text beside a SMILES is read from it. * marks the point of attachment. AMC = Cc1cc(=O)oc2cc(N*)ccc12; Cbz = O=C(OCc1ccccc1)*

As to `CC(C)C[C@H](NC(=O)[C@H]1O[C@@H]1C(=O)O)C(=O)NCCCCN=C(N)N` (relative stereo) [E-6464, L-trans-epoxysuccinyl-leucylamido(4-guanido)butane], in assay [1] (setting [2]), the “inhibition of the z-Phe-Arg-AMC hydrolysing activity of hair extract” value was “potently inhibited”. Consider `N[C@@H](CS)C(=O)O` [cysteine], for which the “stimulation of the z-Phe-Arg-AMC hydrolysing activity of hair extract” value in assay [1] (setting [2]) is “stimulated”. Turning to `CC(C)CCC[C@@H](C)[C@H]1CC[C@H]2[C@@H]3CC=C4C[C@@H](OS(=O)(=O)O)CC[C@]4(C)[C@H]3CC[C@]12C` [cholesterol-3-sulphate], the Km on human steroid sulphatase is 5 µM.

On to `Cc1cc(=O)oc2cc(NC(=O)C(CCCN=C(N)N)NC(=O)C(Cc3ccccc3)NC(=O)OCc3ccccc3)ccc12` (stereo not drawn) [z-Phe-Arg-AMC] (Cbz-Phe-Arg-{AMC}; configuration not given here), for which the “apparent Vmax of cathepsin L-type activity” value in assay [1] (hair extract, 1 mg of extract from approx. 9 g hair) is recorded as 1.66 nmoles AMC produced per minute per mg hair extract. In assay [1] (seven peptidyl-AMC substrates, 100 μM, pH 6.0, 30° C., 2 hours), the “hydrolysis by the hair extracts compared with the other peptidyl-AMC substrates” value was “most hydrolysed”.
